Measured values published in US20250136592A1, “C-LINKED INHIBITORS OF ENL/AF9 YEATS” (Bridge Medicines, priority 2021, published 2025).
Like-named read-outs stand apart in the source and are kept apart here.

Legend:
ENL YEATS domain = ENL YEATS domain (Homo sapiens (Human), UniProt Q03111); assay: TR-FRET ENL Screening Assay; conditions: 6xHIS ENL YEATS domain binding to H3K9cr peptide
Method: Compounds of the invention were tested in a TR-FRET ENL Screening Assay. TR-FRET (time-resolved fluorescence energy transfer) can be used to quantify ENL YEATS domain binding to a crotonylated histone peptide (H3K9cr, aa1-20). Streptavidin-Europium (Eu) chelate binds the biotinylated peptide, while Anti-6×HIS ULight™ binds 6×HIS-ENL. When Eu chelate is excited at 320 nm, fluorescence resonance energy transfer (FRET) occurs if Eu and ULight are made proximal by ENL binding to the acyl-peptide.
Low control (LC) wells received 5 μL of assay buffer instead of ENL protein. […] The response at each compound concentration minus the LC value was converted to percent inhibition of the vehicle control group response (HC-LC).

[1] = test system: MV4:11 (MLL-AF4 MLL) cells; assay: Cell viability assay (CellTiter-Glo), 12 days; assay type: cell-based; conditions: MV4;11 cells, 12 day, read-out: CTG_MV4, 11 12 DAY_EC50
Method: The assays were conducted over 12 days and the cells being split on days 4 and 8. […] Blank wells received cell culture medium. Plates were incubated for 4 days at 37° C. with 5% CO2. On days 4 and day 8 the cells were split and incubated for a further 4 days whilst an aliquot of cells were taken for the CTG readout. For the cell splitting, 270 nL of compounds or DMSO was added to a new 96 well cell culture plate to which 90 μL of medium plus 10 μL of cells from the original assay plate (after mixing) or 100 μL of medium (Blank wells) was added. This was repeated on day 8.
Cell viability was assessed using the CellTiter-Glo® homogeneous luminescent assay kit (Promega, G9243), according to the manufacturer's instructions. This quantifies ATP, which indicates the presence of metabolically active cells. […] The resulting data were analyzed as follows:
where vehicle are cells treated with 0.3% DMSO, Blank is culture medium. IC50 determinations were calculated by fitting the curve using XLfit (v5.3.1.3): Y=Bottom+(Top−Bottom)/(1+10^((LogIC50−X)*HillSlope)).

ENL YEATS domain, sequence (Q03111 1-138): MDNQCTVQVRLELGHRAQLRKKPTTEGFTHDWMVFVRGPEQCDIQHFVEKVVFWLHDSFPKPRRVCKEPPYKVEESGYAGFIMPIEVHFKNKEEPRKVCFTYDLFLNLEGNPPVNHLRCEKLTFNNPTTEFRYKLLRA

Row | Compound | IC50 (ENL YEATS domain) | EC50 ([1]; Homo sapiens, 288 h) | EC50 [1]
1 | CN1CCC[C@@H]1c1cc2cnc(NC(=O)c3ccc4c(C(F)(F)F)nn(C)c4c3)cc2[nH]1 [Example 39] | 43 nM | 2780 nM | 
2 | CN1CCC[C@@H]1c1cc2cnc(NC(=O)c3cc4c(cn3)cnn4C)cc2[nH]1 [Example 5, (R)-1-methyl-N-(2-(1-methylpyrrolidin-2-yl)-1H-pyrrolo[3,2-c]pyridin-6-yl)-1H-pyrazolo[4,3-c]pyridine-6-carboxamide] | 1240 nM |  | 
3 | Cc1noc2c(F)c(C(=O)Nc3ccc4nc([C@H]5CCCN5C)[nH]c4c3)ccc12 [Example 18] | 125 nM |  | 
4 | CN1CCC[C@@H]1c1cc2cnc(NC(=O)c3ccc4c(c3)[nH]c(=O)n4C)cc2[nH]1 [Example 48] | 30 nM |  | 
5 | Cc1nccc2cc(C(=O)Nc3cc4[nH]c([C@H]5CCCN5C)cc4cn3)ccc12 [Example 65] | 18 nM | 54 nM | 
6 | CN1CCC[C@@H]1c1cc2cnc(NC(=O)c3ccn4ccnc4c3)cc2[nH]1 [Example 45] | 293 nM | 6950 nM | 
7 | CN1CCC[C@@H]1c1cc2cnc(NC(=O)c3ccc4c(c3)ncn4C)cc2[nH]1 [Example 59] | 53 nM | 15800 nM | 
8 | Cc1noc2cc(C(=O)Nc3ccc4nc(C5CCCN5C)[nH]c4c3)ccc12 (stereo not drawn) [Example 12] | 78 nM | 201 nM | 
9 | CN1CCC[C@@H]1c1cc2ncc(NC(=O)c3ccc4cnn(C5CC5)c4c3)cc2[nH]1 [Example 82] | 102 nM | 409 nM | 
10 | CN1CCC[C@@H]1c1cc2cnc(NC(=O)c3ccc4c(C5CC5)nn(C)c4c3)cc2[nH]1 [Example 29] | 21 nM | 1120 nM | 
11 | CN1CCCC[C@@H]1c1cc2cnc(NC(=O)c3ccc4c(=O)n(C)cnc4c3)cc2[nH]1 [Example 101, (R)-3-methyl-N-(2-(1-methylpiperidin-2-yl)-1H-pyrrolo[3,2-c]pyridin-6-yl)-4-oxo-3,4-dihydroquinazoline-7-carboxamide] | 177 nM | 426 nM | 
12 | CN1CCC[C@@H]1c1cc2ncc(NC(=O)c3ccc4c(F)n[nH]c4c3F)cc2[nH]1 [Example 74] | 79 nM | 1420 nM | 
13 | CN1CCC[C@@H]1c1cc2cnc(NC(=O)c3ccc4ccn(C)c4c3)cc2[nH]1 [Example 62] | 465 nM | 597 nM | 
14 | CN1CCC[C@@H]1c1cc2cnc(NC(=O)c3ccc4[nH]nc(Cl)c4c3)cc2[nH]1 [Example 43] | 37 nM | 256 nM | 
15 | CN1CCC[C@@H]1c1cc2cnc(NC(=O)c3ccc4nnn(C)c4c3)cc2[nH]1 [Example 72] | 120 nM | 2570 nM | 
16 | Cc1ccc2cc(C(=O)Nc3ccc4cc([C@H]5CCCN5C)[nH]c4c3)c(F)cc2n1 [Example 76] | 136 nM |  | 723 nM

Row | Compound | IC50 (ENL YEATS domain) | EC50 ([1]; Homo sapiens, 288 h) | EC50 [1]
17 | CN1CCC[C@@H]1c1cc2cnc(NC(=O)c3ccc4c(C(F)(F)F)ncn4c3)cc2[nH]1 [Example 37] | 55 nM | 47 nM | 
18 | CN1CCC[C@@H]1c1nc2cc(NC(=O)c3ccc4c(cnn4-c4ccncn4)c3)ccc2[nH]1 [Example 23] | 277 nM |  | 
19 | CN1C(=O)COc2cc(C(=O)Nc3cc4[nH]c([C@H]5CCCCN5C)cc4cn3)ccc21 [Example 105, (R)-4-methyl-N-(2-(1-methylpiperidin-2-yl)-1H-pyrrolo[3,2-c]pyridin-6-yl)-3-oxo-3,4-dihydro-2H-benzo[b][1,4]oxazine-7-carboxamide] | 145 nM | 416 nM | 
20 | CN1CCC[C@@H]1c1nc2cc(NC(=O)c3ccc4c(cnn4-c4ccccn4)c3)ccc2[nH]1 [Example 21] | 200 nM |  | 
21 | CN1CCCC[C@@H]1c1cc2cnc(NC(=O)c3ccc4c(ccc(=O)n4C)c3)cc2[nH]1 [Example 99, (R)-1-methyl-N-(2-(1-methylpiperidin-2-yl)-1H-pyrrolo[3,2-c]pyridin-6-yl)-2-oxo-1,2-dihydroquinoline-6-carboxamide] | 56 nM | 293 nM | 
22 | CC(C)c1ncc2cc(C(=O)Nc3cc4[nH]c([C@H]5CCCN5C)cc4cn3)ccn12 [Example 67] | 75 nM | 38 nM | 
23 | Cc1ncn2ccc(C(=O)Nc3cc4[nH]c([C@H]5CCCCN5C)cc4cn3)cc12 [Example 92] | 93 nM | 100 nM | 
24 | CN1CCCC[C@@H]1c1cc2cnc(NC(=O)c3ccc4c(F)nn(C)c4c3)cc2[nH]1 [Example 81, (R)-3-fluoro-1-methyl-N-(2-(1-methylpiperidin-2-yl)-1H-pyrrolo[3,2-c]pyridin-6-yl)-1H-indazole-6-carboxamide] | 51 nM | 292 nM | 
25 | CN1CCC[C@@H]1c1nc2cc(NC(=O)c3ccc4c(cnn4-c4cccnc4)c3)ccc2[nH]1 [Example 22] | 131 nM |  | 
26 | Cc1nc2ccc(C(=O)Nc3cc4[nH]c([C@H]5CCCN5C)cc4cn3)cc2o1 [Example 56] | 131 nM | 4780 nM | 
27 | CN1CCC[C@@H]1c1cc2cnc(NC(=O)c3ccc4cnn(C)c4c3)cc2[nH]1 [Example 38] | 94 nM | 87 nM | 
28 | CN1CCC[C@@H]1c1cc2cnc(NC(=O)c3ccc4c(ccn4C)c3)cc2[nH]1 [Example 60] | 148 nM | 298 nM | 
29 | Cc1noc2ccc(C(=O)Nc3ccc4nc([C@H]5CCCN5C)[nH]c4c3)cc12 [Example 11] | 465 nM |  | 
30 | COc1nccc2cc(C(=O)Nc3cc4[nH]c([C@H]5CCCN5C)cc4cn3)ccc12 [Example 52] | 25 nM |  | 
31 | CN1CCCC1c1nc2ccc(NC(=O)c3ccc4ncccc4c3)cc2[nH]1 (stereo not drawn) [Example 25] | 181 nM |  | 

Further lines, results first:

Row | IC50 (ENL YEATS domain) | EC50 ([1]; Homo sapiens, 288 h) | EC50 [1] | Compound
32 | 26 nM | 1440 nM |  | CN1CCC[C@@H]1c1cc2cnc(NC(=O)c3ccc4c(cnn4C)c3)cc2[nH]1 [Example 49]
33 | 145 nM | 374 nM |  | CN1CCC[C@@H]1c1nc2cc(NC(=O)c3ccc4c(c3)[nH]c(=O)n4C)ccc2[nH]1 [Example 26]
34 | 175 nM | 252 nM |  | Cc1ncc2ccc(C(=O)Nc3cc4[nH]c([C@H]5CCCCN5C)cc4cn3)cn12 [Example 89]
35 | 103 nM | 2320 nM |  | CNc1nn(C)c2cc(C(=O)Nc3cc4[nH]c([C@H]5CCCN5C)cc4cn3)ccc12 [Example 50]
36 | 48 nM | 570 nM |  | Cc1cnn2cc(C(=O)Nc3cc4[nH]c([C@H]5CCCN5C)cc4cn3)ccc12 [Example 34]
37 | 160 nM | 492 nM |  | Cc1nn(C)c(=O)c2ccc(C(=O)Nc3cc4[nH]c([C@H]5CCCCN5C)cc4cn3)cc12 [Example 104, (R)-2,4-dimethyl-N-(2-(1-methylpiperidin-2-yl)-1H-pyrrolo[3,2-c]pyridin-6-yl)-1-oxo-1,2-dihydrophthalazine-6-carboxamide]
38 | 42 nM | 1780 nM |  | CN1CCC[C@@H]1c1cc2cnc(NC(=O)c3ccc4[nH]nc(C(F)(F)F)c4c3)cc2[nH]1 [Example 33]
39 | 84 nM | 117 nM |  | Cc1ncc2cc(C(=O)Nc3cc4[nH]c([C@H]5CCCN5C)cc4cn3)ccn12 [Example 42]
40 | 106 nM | > 30000 nM |  | CN1CCC[C@@H]1c1cc2cnc(NC(=O)c3ccc4c(c3)nnn4C)cc2[nH]1 [Example 57]
41 | 90 nM | 2860 nM |  | Cc1nc2cc(C(=O)Nc3cc4[nH]c([C@H]5CCCN5C)cc4cn3)ccc2[nH]1 [Example 61]
42 | 208 nM | 8580 nM |  | Cc1[nH]c2ccc(C(=O)Nc3cc4[nH]c([C@H]5CCCN5C)cc4cn3)cc2c1C [Example 58]
43 | 95 nM | 7020 nM |  | CN1CCC[C@@H]1c1cc2cnc(NC(=O)c3ccc4ncn(C)c4c3)cc2[nH]1 [Example 63]
44 | 28 nM | 745 nM |  | CNc1c(OC)cnc2cc(C(=O)Nc3cc4[nH]c([C@H]5CCCN5C)cc4cn3)ccc12 [Example 47]
45 | 35 nM | 48 nM |  | CN1CCC[C@@H]1c1cc2cnc(NC(=O)c3ccn4c(C5CC5)ncc4c3)cc2[nH]1 [Example 68]
46 | 200 nM | 289 nM |  | CN1CCCC[C@@H]1c1cc2cnc(NC(=O)c3ccc4ncn(C)c(=O)c4c3)cc2[nH]1 [Example 102, (R)-3-methyl-N-(2-(1-methylpiperidin-2-yl)-1H-pyrrolo[3,2-c]pyridin-6-yl)-4-oxo-3,4-dihydroquinazoline-6-carboxamide]
47 | 133 nM | 186 nM |  | Cc1ncc2ccc(C(=O)Nc3cc4[nH]c([C@H]5CCCN5C)cc4cn3)cn12 [Example 28]
48 | 780 nM |  |  | CN1CCC[C@@H]1c1cc2cnc(NC(=O)c3cnc4c(ccn4C)c3)cc2[nH]1 [Example 44]
49 | 200 nM |  |  | CN1CCCCC1c1nc2cc(NC(=O)c3ccc4c(cnn4C)c3)ccc2[nH]1 (stereo not drawn) [Example 9, 1-methyl-N-[2-(1-methylpiperidin-2-yl)-1H-1,3-benzodiazol-5-yl]indazole-5-carboxamide]
